Results on 1 compound are retold here after US6201116A, “Halide indicators” (The Regents of the University of California, priority 1999, dated 2001).

The subject of data set [1] is cells. In words: Photobleaching in cells. The class given is cell-based. Here is the method:
Fluorescence microscopy. Fluorescence microscopy measurements were performed as described previously (Chao et al., 1989). Briefly, coverglasses were mounted in a 0.5 ml perfusion chamber in which the cell-free glass surface made contact with an oil immersion objective (Nikon ×40 magnification, numerical aperture[NA] 1.3). Cell fluorescence was excited at 365±10 nm (SPQ) or 420 nm±10 nm (LZQ and LMQ). Emitted fluorescence was detected by a photomultiplier in a Nikon inverted epifluorescence microscope using a 410 nm dichroic mirror and 420 nm barrier filter (SPQ) or a 455 nm dichroic mirror and 500 nm barrier filter (LZQ). For cells colabeled with SPQ and LZQ, SPQ fluorescence was excited at 365±10 nm and detected using a 410 nm dichroic mirror and 455±30 nm interference filter. Confocal fluorescence micrographs were obtained using a Nipkow wheel confocal microscope and cooled CCD camera detector using a ×60 oil immersion objective (Nikon, NA 1.4). LZQ-labeled cells were viewed using a fluorescein filter set (excitation 480±15 nm, emission 520±20 nm).
A time course of LZQ fluorescence during perfusion with physiological saline at 23° C. was generated. A small group of 20-30 cells was illuminated continuously and fluorescence was detected by a photomultiplier using an ×40, 1.3 NA objective. Cellular fluorescence decreased slowly at a rate of 2.5% per hour. To determine the relative contributions of indicator leakage vs. photobleaching to the slow decline in fluorescence, the perfused cells were illuminated intermittently. […] Background fluorescence (in non-labeled cells) was generally <5% of the fluorescence of LZQ-labeled cells.

Data set [2] has as its system CFTR. The data set is described as follows: I^-/NO3^- exchange in forskolin-stimulated CFTR-expressing cells. The class given is cell-based. How it is done:
Transport measurements. Cells were labeled with LZQ or SPQ by hypotonic shock (loading buffer/water 1:1 containing 2 mM LZQ or 7.5 mM SPQ) for 5 min at room temperature or by overnight incubation with indicators in the cell culture medium. Extracellular indicator was removed by washing just prior to measurements. For fluorescence microscopy, glass coverslips were then mounted in a perfusion chamber (flow ~2 ml/min) in which solutions were exchanged using a 4-way valve. For microplate reader measurements, cells in 96-well plates were bathed in […] of the `1st buffer` (see Table 3) and […] of the Cl^- -containing, I^- -free solution was injected into the well to drive Cl^- /I^- exchange (protocol 1). For stimulation of CFTR using protocol 2, […] of a 1:8 mixture of the 1st buffer and the 2nd buffer containing […] forskolin, 2 mM CPT-cAMP and […] IBMX was added.
For determination of the absolute I^- transport rates, the time course of intracellular [I^- ] was computed from the time course of SPQ or LZQ fluorescence using the modified Stem-Volmer equation [I^- ]={([Fo -Fb ]/[F-Fb ])-1}/KI, where Fo is fluorescence intensity in the absence of I^-, Fb is background fluorescence of unlabeled cells, and KI the intracellular quenching constant for I^- (see Results). I^- transport rates were calculated from the slope of a linear regression of the first 10 time points after changing perfusate composition.
The utility of LZQ for functional measurement of CFTR expression was tested. […] A comparison of data obtained for cells loaded with LZQ and SPQ initially loaded with I^-, followed by replacement of I^- with NO3^- in the absence of forskolin, followed by addition of forskolin was also performed. The initial rates of forskolin-stimulated I^- efflux (SPQ: 0.09±0.02 mM/s; LZQ: 0.08±0.01 mM/s) were similar. Measurements of Cl^- /NO3^- exchange were also carried out by measuring SPQ fluorescence using cells labeled with SPQ alone vs. cells colabeled with SPQ and LZQ.

Regarding `[O-]c1nc2c(N[C@@H]3O[C@H](CO)[C@@H](O)[C@H]3O)ncnc2[n+]2ccccc12` [I, 4-(β-D-ribofuranosylamino)-pyrido [2,1-h] pteridin-11-ium-5-olate], the “Cellular properties: photobleaching” value in data set [1] (Table 4) was “slow”. For the same compound, the “photobleaching, intermittent vs. continuous illumination” value in data set [1] (low light level conditions) is recorded as “absence of photobleaching”. In addition, in data set [2] (I^- replaced by NO3^- without forskolin, then forskolin added), the “initial rate of forskolin-stimulated I^- efflux” value is 0.08 ± 0.01 mM/s. Further, in data set [2] (forskolin-stimulated CFTR-expressing cells, I^-/NO3^- exchange), the “computed I^- efflux rate” value is 0.09 ± 0.03 mM/s. The “computed I^- influx rate” value in data set [2] (forskolin-stimulated CFTR-expressing cells, I^-/NO3^- exchange, S.E., n=3) was 0.25 ± 0.01 mM/s.
